PMC12564223, “UHPLC-QTOF-ESI-MS/MS, SNAP-MS Identification, In Silico Prediction of Pharmacokinetic Properties of Constituents from the Stem Bark of Holarrhena floribunda (G. Don) T. Durand and Schinz (Apocynaceae)” (Biomolecules, 2025)
Read-outs that look alike come from different tables or passages of the source.

Key:
[1] = test system: P. falciparum 3D7 (Chloroquine-sensitive); experiment: Plasmodium falciparum growth inhibition assay (SYBR green I), 3D7 strain; format: cell-based; conditions: read-out: IC50/Pf3D7
[2] = test system: P. falciparum Dd2 (multidrug-resistant); experiment: Plasmodium falciparum growth inhibition assay (SYBR green I), Dd2 strain; format: cell-based; conditions: for IC50: Plasmodium falciparum, read-out: IC50/PfDd2
[3] = test system: Plasmodium falciparum FCB1 (chloroquine-resistant); parameters: method as in PMID 15863333; conditions: Pf FCB1; ref [17]; cited from earlier work
[4] = test system: Plasmodium falciparum K1 (multi-resistant); parameters: method as in PMID 29172699; conditions: Pf K1; ref [18]; cited from earlier work
[5] = test system: human cervix carcinoma KB-3-1 cancer cell lines; experiment: Cytotoxicity on KB-3-1 cells; conditions: called IC50 in the text
[6] = test system: human cervix carcinoma KB-3-1 cancer cell lines
[7] = 3D7, compounds and reference drugs, 72 h incubation
[8] = DD2, compounds and reference drugs, 72 h incubation

Row | Compound | IC50 ([1]; 3D7, 72 h) | IC50 ([2]; DD2, 72 h) | RI: [IC50PfDd2/IC50Pf3D7] ([2]; Resistance Index) | IC50 [4] | further results
1 | C[C@H]1[C@H]2CC[C@H]3[C@@H]4CC=C5C[C@@H](N(C)C)CC[C@]5(C)[C@H]4CC[C@]23CN1C [compound 5, Conessine] | 26 ± 0.43 µM | 28.5 ± 0.704 µM | 1.09 |  | IC50 [3]: 1040 nM
2 | COc1cc(C)c2c(=O)c3c(O)cc(OC)cc3oc2c1 [compound 27, lichexanthone] | 33.4 ± 1.2 µM | 36.5 ± 1.39 µM | 1.09 |  | 
3 | C[C@@H]1CC[C@H]2[C@@H](C)C(=O)O[C@@H]3O[C@@]4(C)CC[C@@H]1[C@]32OO4 [Artemisinin, reference compound] |  |  | 0.71 |  | IC50 [1, 7]: 0.035 µM; IC50 [2, 8]: 0.025 ± 0.006 µM
4 | CNC1CCC2(C)C(=CCC3C2CCC2(C)C(C(C)=O)CCC32)C1 (centres unmarked) [compound 16, N-methylholaphyllamine] |  |  |  | 10.6 µM | 
5 | CC(O)C1CCC2C3CC=C4CC(N)CCC4(C)C3CCC12C (centres unmarked) [compound 15, Holaphyllaminol] |  |  |  | 11.7 µM | 
6 | CNC1CCC2(C)C(=CCC3C2CC(OC(=O)CC=C(C)C)C24CN(C)C(C)C2CCC34)C1 (centres unmarked) [compound 11, Holarrhesine] |  |  |  |  | IC50 [3]: 970 ± 110 nM
7 | CCN(CC)CCCC(C)Nc1ccnc2cc(Cl)ccc12 (centres unmarked) [Chloroquine, reference compound] | 0.045 ± 0.003 µM | 0.73 ± 0.09 µM |  |  | RI: [IC50PfDd2/IC50Pf3D7] [2]: 16.22
8 | CC1N=CC23CCC4C(CC=C5CC(N)CCC54C)C2CCC13 (centres unmarked) [compound 3, Irheline] |  |  |  | 1.2 µM | IC50 [1, 7]: > 50 µM; IC50 [2, 8]: > 50 µM
9 | CCOC(=O)c1c(C)cc(O)cc1O [compound 26, ethylorsalinate] |  |  |  |  | IC50 [1, 7]: > 50 µM; IC50 [2, 8]: > 50 µM
10 | CNC1CCC2(C)C(=CCC3C2CCC24CNC(C)C2CCC34)C1 (centres unmarked) [compound 4, Conimin/conamine] |  |  |  | 8 µM | 
11 | Cryptophycin |  |  |  |  | CC50 on KB-3-1 [5]: 1.3 × 10^−5 μM µM; CC50 on KB-3-1 ([5]; listed as cryptophycin): 1.3e-05 µM
12 | CC(C)=CCC(=O)O[C@@H]1C[C@H]2[C@@H](CC=C3C[C@@H](N(C)C)CC[C@@]32C)[C@@H]2CC[C@@H]3[C@H](C)N(C)C[C@]312 [compound 10, Holarrhetine] |  |  |  |  | IC50 [3]: 1130 ± 320 nM
13 | CC(=O)C1CCC2C3CC=C4CC(N)CCC4(C)C3CCC12C (centres unmarked) [compound 14, Holaphyllamine] | 49.5 ± 4.83 µM | 55.8 ± 9.75 µM | 1.12 |  | CC50 on KB-3-1 [6]: 9.8 µM
